Test results from patent US20180305332A1, “Bispiperidinyl Derivatives as Liver X Receptor Beta Agonists, Compositions, and Their Use” (Merck Sharp & Dohme Corp., priority 2015, published 2018).

Assays:
[1] = molecular target: T1, GST tagged LXRbeta LBD (ligand binding domain) (Homo sapiens, UniProt P55055); assay: LanthaScreen TR-FRET Liver X Receptor Coactivator Assay, LXR beta-LBD; type: biochemical; conditions: relative to reference T0901317; for EC50: Inflection Point (potency), co-activator recruitment, read-out: LXR beta IP; for Emax: read-out: LXR beta act @ max dose (%)
T1 construct: purchased Invitrogen pv4658.pps
T1 sequence (P55055 222-460 limits assumed): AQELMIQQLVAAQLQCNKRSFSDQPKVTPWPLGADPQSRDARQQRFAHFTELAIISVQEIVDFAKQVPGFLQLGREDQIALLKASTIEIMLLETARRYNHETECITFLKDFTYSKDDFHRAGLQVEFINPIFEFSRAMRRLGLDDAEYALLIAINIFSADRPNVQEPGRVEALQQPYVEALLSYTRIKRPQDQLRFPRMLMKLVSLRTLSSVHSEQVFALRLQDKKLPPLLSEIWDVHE
Summary of the method: (§1)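 GST-tagged human LXRα or LXRβ LBD was mixed with test compound, then fluorescein-labelled coactivator peptide and terbium anti-GST antibody added. After room-temperature incubation, TR-FRET was read. Inflection point and Emax expressed relative to reference dual agonist T0901317.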

[2] = molecular target: T2, GST tagged LXRalpha LBD (ligand binding domain) (Homo sapiens, UniProt Q13133); assay: LanthaScreen TR-FRET Liver X Receptor Coactivator Assay, LXR alpha-LBD; type: biochemical; conditions: relative to reference T0901317; for LXR alpha IP (nM) / EC50: Inflection Point (potency), co-activator recruitment; for Emax: read-out: LXR alpha act @ max dose (%); for EC50: read-out: LXR alpha IP
T2 construct: purchased Invitrogen pv4655
T2 sequence (Q13133 209-447 limits assumed): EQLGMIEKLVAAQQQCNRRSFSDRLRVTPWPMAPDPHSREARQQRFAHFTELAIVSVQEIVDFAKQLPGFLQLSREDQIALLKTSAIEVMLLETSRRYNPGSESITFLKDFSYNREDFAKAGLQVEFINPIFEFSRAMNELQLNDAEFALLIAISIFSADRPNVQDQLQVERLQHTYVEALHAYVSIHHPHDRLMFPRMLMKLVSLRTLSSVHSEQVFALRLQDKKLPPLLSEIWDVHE
Summary of the method: as §1

[3] = activity at max dose (efficacy)

| EC50 [1] [nM] | Emax [1, 3] [%] | LXR alpha IP (nM) [2] | Emax [2, 3] [%] | EC50 [2] [nM] | LXR beta act @ max dose (%) [1, 3] [%] | LXR alpha act @ max dose (%) [2, 3] [%] | Structure (SMILES) |
| --- | --- | --- | --- | --- | --- | --- | --- |
| 90 | 67 | – | 31 | 1690 | – | – | O=C(c1ccc(N2CCC(C3CCN(C(=O)[C@](O)(c4ccccc4)C(F)(F)F)CC3)CC2)cc1Cl)N1CC(N2CCCCC2)C1 [Example E-44, (2R)-3-(1′-{3-chloro-4-[(3-piperidin-1-ylazetidin-1-yl)carbonyl]phenyl}-4,4′-bipiperidin-1-yl)-1,1,1-trifluoro-3-oxo-2-phenylpropan-2-ol] |
| 144 | 57 | – | 22 | 2260 | – | – | COC(=O)C1CN(C(=O)c2ccc(N3CCC(C4CCN(C(=O)[C@](O)(c5ccccc5)C(F)(F)F)CC4)CC3)cc2Cl)C1 [Example E-32, methyl 1-[(2-chloro-4-{1′-[(2R)-3,3,3-trifluoro-2-hydroxy-2-phenylproanoyl]-4,4′-bipiperidin-1-yl}phenyl)carbonyl]azetidine-3-carboxylate] |
| 38 | 108 | – | 46 | 1670 | – | – | CC(C)C(O)(C(=O)N1CCC(C2CCN(c3ccc(C(=O)N(C)C)c(Cl)n3)CC2)CC1)C(F)(F)F (stereo in doubt) [Example B-6, 2-chloro-6-{1′-[(2S)-2-hydroxy-3-methyl-2-(trifluoromethyl)butanoyl]-4,4′-bipiperidin-1-yl}-N,N-dimethylpyridine-3-carboxamide] |
| 57 | 98 | – | 48 | 1830 | – | – | CN(CCO)C(=O)c1ccc(N2CCC(C3CCN(C(=O)[C@](O)(c4ccccc4)C(F)(F)F)CC3)CC2)cc1Cl [Example E-58, 2-chloro-N-(2-hydroxyethyl)-N-methyl-4-{1′-[(2R)-3,3,3-trifluoro-2-hydroxy-2-phenylpropanoyl]-4,4′-bipiperidin-1-yl}benzamide] |
| 216 | 70 | NO IP | 5 | – | – | – | O=C(c1ccc(N2CCC(C3CCN(C(=O)[C@](O)(c4ccccc4)C(F)(F)F)CC3)CC2)cc1Cl)N1CCCC2(CC2)C1 [Example E-37, (2R)-3-{1′-[4-(5-azaspiro[2.5]oct-5-ylcarbonyl)-3-chlorophenyl]-4,4′-bipiperidin-1-yl}-1,1,1-trifluoro-3-oxo-2-phenylpropan-2-ol] |
| 297 | 52 | NO IP | 39 | – | – | – | O=C(c1ccc(N2CCC(C3CCN(C(=O)[C@](O)(c4ccccc4)C(F)(F)F)CC3)CC2)cc1Cl)N1CC(n2cccn2)C1 [Example E-40, (2R)-3-[1′-(3-chloro-4-{[3-(1H-pyrazol-1-yl)azetidin-1-yl]carbonyl}phenyl)-4,4′-bipiperidin-1-yl]-1,1,1-trifluoro-3-oxo-2-phenylpropan-2-ol] |
| 145 | 62 | – | 18 | 1720 | – | – | CC(c1ccon1)N(C)C(=O)c1ccc(N2CCC(C3CCN(C(=O)[C@](O)(c4ccccc4)C(F)(F)F)CC3)CC2)cc1Cl (stereo partly drawn) [Example E-51, 2-chloro-N-(1-isoxazol-3-ylethyl)-N-methyl-4-{1′-[(2R)-3,3,3-trifluoro-2-hydroxy-2-phenylpropanoyl]-4,4′-bipiperidin-1-yl}benzamide] |
| 473 | 46 | – | 15 | 2150 | – | – | O=C(c1c(F)cccc1F)N1CCC(C2CCN(c3ccc(C(=O)N4CCCC4C(F)(F)F)c(Cl)c3)CC2)CC1 (centres unmarked) [Example E-13, 1-(3-chloro-4-{[2-(trifluoromethyl)pyrrolidin-1-yl]carbonyl}phenyl)-1′-[(2,6-difluorophenyl)carbonyl]-4,4′-bipiperidine] |

The remaining lines, values behind:

| Structure (SMILES) | EC50 [1] [nM] | Emax [1, 3] [%] | LXR alpha IP (nM) [2] | Emax [2, 3] [%] | EC50 [2] [nM] | LXR beta act @ max dose (%) [1, 3] [%] | LXR alpha act @ max dose (%) [2, 3] [%] |
| --- | --- | --- | --- | --- | --- | --- | --- |
| CN(C)C(=O)c1ccc(N2CCC(C3CCN(C(=O)C4(c5ccc(Cl)cc5)CCC4)CC3)CC2)cc1Cl [Example A-47, 2-chloro-4-(1′-{[1-(4-chlorophenyl)cyclobutyl]carbonyl}-4,4′-bipiperidin-1-yl)-N,N-dimethylbenzamide] | 178 | 78 | NO IP | 4 | – | – | – |
| Cc1ccc(C2(C(=O)N3CCC(C4CCN(c5ccc(C(=O)N(C)C)c(Cl)c5)CC4)CC3)CCC2)cc1 [Example A-72, 2-chloro-N,N-dimethyl-4-(1′-{[1-(4-methylphenyl)cyclobutyl]carbonyl}-4,4′-bipiperidin-1-yl)benzamide] | 112 | 96 | – | 30 | 1260 | – | – |
| CN(C)C(=O)c1ccc(N2CCC(C3CCN(C(=O)c4ccccc4C(F)(F)F)CC3)CC2)cc1Cl [Example A-21, 2-chloro-N,N-dimethyl-4-(1′-{[2-(trifluoromethyl)phenyl]carbonyl}-4,4′-bipiperidin-1-yl)benzamide] | 243 | 95 | – | 37 | 3000 | – | – |
| COc1cccc(C(O)(C(=O)N2CCC(C3CCN(c4ccc(C(=O)N(C)C)c(Cl)c4)CC3)CC2)C(F)(F)C(F)(F)F)c1 (centres unmarked) [Example A-81, 2-chloro-N,N-dimethyl-4-{1′-[3,3,4,4,4-pentafluoro-2-hydroxy-2-(3-methoxyphenyl)butanoyl]-4,4′-bipiperidin-1-yl}benzamide] | 283 | 104 | – | 25 | 3670 | – | – |
| CN(C)C(=O)c1ccc(N2CCC(C3CCN(C(=O)C(O)(C4CC4)C(F)(F)F)CC3)CC2)cc1Cl (single isomer, unassigned) [Example A-8, 2-chloro-4-[1′-(2-cyclopropyl-3,3,3-trifluoro-2-hydroxypropanoyl)-4,4′-bipiperidin-1-yl]-N,N-dimethylbenzamide] | 247 | 95 | – | 60 | 1810 | – | – |
| CN(C)C(=O)c1ccc(N2CCC(C3CCN(C(=O)c4c(F)cccc4F)CC3)CC2)cc1Cl [Example A-23, 2-chloro-4-{1′-[(2,6-difluorophenyl)carbonyl]-4,4′-bipiperidin-1-yl}-N,N-dimethylbenzamide] | 79 | 92 | – | 23 | 2980 | – | – |
| CN(C)C(=O)c1ccc(N2CCC(C3CCN(C(=O)C(O)(C(C)(C)C)C(F)(F)F)CC3)CC2)cc1Cl (racemic) [Example A-4, 2-Chloro-4-(1′-(2-hydroxy-3,3-dimethyl-2-(trifluoromethyl)butanoyl)-[4,4′-bipiperidin]-1-yl)-N,N-dimethylbenzamide] | 29 | 104 | – | 65 | 735 | – | – |
| CN(C)C(=O)c1ccc(N2CCC(C3CCN(C(=O)C(O)(c4ccccc4)C(F)(F)C(F)(F)C(F)(F)F)CC3)CC2)cc1Cl (centres unmarked) [Example A-55, 2-chloro-4-[1′-(3,3,4,4,5,5,5-heptafluoro-2-hydroxy-2-phenylpentanoyl)-4,4′-bipiperidin-1-yl]-N,N-dimethylbenzamide] | 408 | – | – | – | 1340 | 93 | 25 |
| CN(C)C(=O)c1ccc(N2CCC(C3CCN(C(=O)C(O)(c4ccccc4)C4CCC4)CC3)CC2)cc1Cl (centres unmarked) [Example A-51, 2-chloro-4-{1′-[cyclobutyl(hydroxy)phenylacetyl]-4,4′-bipiperidin-1-yl}-N,N-dimethylbenzamide] | 128 | 109 | – | 33 | 1590 | – | – |
